Assay results published in US11759462B2, “Spirocyclic compounds as tryptophan hydroxylase inhibitors” (priority 2013, dated 2023).
Like-named read-outs stand apart in the source and are kept apart here.

Target: T1, Recombinant human TPH1 (MBP tagged) (Homo sapiens, UniProt P17752)
T1 construct: cloning full length human TPH1 cDNA in to a bacterial pMAL-c5E expression vector; made in house; host or cells: E. coli BL21 (DE3)
T1 sequence (P17752 1-444): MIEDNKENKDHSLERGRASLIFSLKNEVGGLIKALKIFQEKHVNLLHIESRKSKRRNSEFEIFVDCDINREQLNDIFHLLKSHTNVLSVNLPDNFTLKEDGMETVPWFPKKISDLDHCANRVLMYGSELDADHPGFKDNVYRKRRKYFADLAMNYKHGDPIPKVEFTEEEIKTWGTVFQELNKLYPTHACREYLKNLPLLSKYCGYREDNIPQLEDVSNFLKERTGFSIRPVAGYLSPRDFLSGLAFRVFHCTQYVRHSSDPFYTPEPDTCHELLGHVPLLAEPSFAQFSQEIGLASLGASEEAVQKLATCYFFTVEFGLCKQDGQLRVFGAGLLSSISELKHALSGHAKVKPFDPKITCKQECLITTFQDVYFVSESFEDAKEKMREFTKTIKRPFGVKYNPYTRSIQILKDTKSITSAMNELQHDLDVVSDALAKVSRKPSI
Test: TPH1 in vitro inhibition assay (kinetic fluorescence)
Assay type: biochemical
Outline: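 Final mix: 15 nM MBP-TPH1, 30 μM Trp, 36 μM 6-methyltetrahydropterin, 25 μM ferrous ammonium sulfate, 50 mM MES pH 7.1, 1% DMSO, room temperature.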

[1] = read-out: TPH1 Range (TPH1 inhibition IC50)
[2] = TPH1 Range (TPH1 inhibition IC50)

IC50 [1] [nM]	IC50 [2] [nM]	SMILES
50 to 300	–	Nc1nc(O[C@H](c2ccc(-c3ccc(Cl)c(Cl)c3)cc2)C(F)(F)F)cc(N2CCC3(CC2)CN[C@H](C(=O)O)C3)n1 [Example 55cl, (S)-8-(2-amino-6-((R)-1-(3′,4′-dichloro-[1,1′-biphenyl]-4-yl)-2,2,2-trifluoroethoxy)pyrimidin-4-yl)-2,8-diazaspiro[4.5]decane-3-carboxylic acid]
< 50	–	Cc1ccc(-c2ccc([C@@H](Oc3cc(N4CCC5(CC4)CN[C@H](C(=O)O)C5)nc(N)n3)C(F)(F)F)c(-c3cccc(S(C)(=O)=O)c3)c2)cc1C [Example 52a, (S)-8-(2-Amino-6-((R)-1-(3,4-dimethyl-3″-(methylsulfonyl)-[1,1′:3′,1″-terphenyl]-4′-yl)-2,2,2-trifluoroethoxy)pyrimidin-4-yl)-2,8-diazaspiro[4.5]decane-3-carboxylic acid]
50 to 300	–	Cc1cc(C)cc(-c2ccc([C@@H](Oc3cc(N4CCC5(CC4)CN[C@H](C(=O)O)C5)nc(N)n3)C(F)(F)F)cc2)c1 [Example 55cq, (S)-8-(2-amino-6-((R)-1-(3′,5′-dimethyl-[1,1′-biphenyl]-4-yl)-2,2,2-trifluoroethoxy)pyrimidin-4-yl)-2,8-diazaspiro[4.5]decane-3-carboxylic acid]
< 50	–	CS(=O)(=O)c1cccc(-c2cc(-c3ccc4ncccc4c3)ccc2[C@@H](Oc2cc(N3CCC4(CC3)CN[C@H](C(=O)O)C4)nc(N)n2)C(F)(F)F)c1 [Example 52b, (S)-8-(2-amino-6-((R)-2,2,2-trifluoro-1-(3′-(methylsulfonyl)-5-(quinolin-6-yl)-[1,1′-biphenyl]-2-yl)ethoxy)pyrimidin-4-yl)-2,8-diazaspiro[4.5]decane-3-carboxylic acid]
< 50	–	CCCOc1ccc(-c2ccc([C@@H](Oc3cc(N4CCC5(CC4)CN[C@H](C(=O)O)C5)nc(N)n3)C(F)(F)F)c(-c3ccccc3)c2)cc1 [Example 54c, (S)-8-(2-amino-6-((R)-2,2,2-trifluoro-1-(4-propoxy-[1,1′:3′,1″-terphenyl]-4′-yl)ethoxy)pyrimidin-4-yl)-2,8-diazaspiro[4.5]decane-3-carboxylic acid]
50 to 300	–	COc1cc(-c2ccc([C@@H](Oc3cc(N4CCC5(CC4)CN[C@H](C(=O)O)C5)nc(N)n3)C(F)(F)F)cc2)cc(C(F)(F)F)c1 [Example 55z, (S)-8-(2-amino-6-((R)-2,2,2-trifluoro-1-(3′-methoxy-5′-(trifluoromethyl)-[1,1′-biphenyl]-4-yl)ethoxy)pyrimidin-4-yl)-2,8-diazaspiro[4.5]decane-3-carboxylic acid]
50 to 300	–	Nc1nc(O[C@H](c2ccc(-c3ccc4cnsc4c3)cc2)C(F)(F)F)cc(N2CCC3(CC2)CN[C@H](C(=O)O)C3)n1 [Example 55f, (S)-8-(2-amino-6-((R)-1-(4-(benzo[d]isothiazol-6-yl)phenyl)-2,2,2-trifluoroethoxy)pyrimidin-4-yl)-2,8-diazaspiro[4.5]decane-3-carboxylic acid]

Continued, molecule first:

SMILES	IC50 [1] [nM]	IC50 [2] [nM]
Cc1ccn(-c2cc(C(=O)OC(C)(C)C)ccc2[C@@H](Oc2cc(N3CCC4(CC3)CN[C@H](C(=O)O)C4)nc(N)n2)C(F)(F)F)n1 [Example 18d, (S)-8-(2-amino-6-((R)-1-(4-(tert-butoxycarbonyl)-2-(3-methyl-1H-pyrazol-1-yl)phenyl)-2,2,2-trifluoroethoxy)pyrimidin-4-yl)-2,8-diazaspiro[4.5]decane-3-carboxylic acid]	< 50	–
CCCOc1ccc(-c2ccc([C@@H](Oc3cc(N4CCC5(CC4)CN[C@H](C(=O)O)C5)nc(N)n3)C(F)(F)F)c(-n3ccc(C)n3)c2)cc1F [Example 1bz, (S)-8-(2-amino-6-((R)-2,2,2-trifluoro-1-(3′-fluoro-3-(3-methyl-1H-pyrazol-1-yl)-4′-propoxy-[1,1′-biphenyl]-4-yl)ethoxy)pyrimidin-4-yl)-2,8-diazaspiro[4.5]decane-3-carboxylic acid]	< 50	–
Cc1ccn(-c2cc(-c3cccc(C(C)C)c3)ccc2[C@@H](Oc2cc(N3CCC4(CC3)CN[C@H](C(=O)O)C4)nc(N)n2)C(F)(F)F)n1 [Example 1bb, (S)-8-(2-amino-6-((R)-2,2,2-trifluoro-1-(3′-isopropyl-3-(3-methyl-1H-pyrazol-1-yl)-[1,1′-biphenyl]-4-yl)ethoxy)pyrimidin-4-yl)-2,8-diazaspiro[4.5]decane-3-carboxylic acid]	< 50	–
Nc1nc(O[C@H](c2ccc(Cl)cc2-c2ccccn2)C(F)(F)F)cc(N2CCC3(CC2)CN[C@H](C(=O)O)C3)n1 [Example 34cs, (S)-8-(2-amino-6-((R)-1-(4-chloro-2-(pyridin-2-yl)phenyl)-2,2,2-trifluoroethoxy)pyrimidin-4-yl)-2,8-diazaspiro[4.5]decane-3-carboxylic acid]	50 to 300	–
Nc1nc(O[C@H](c2ccccc2-c2cccc(F)c2)C(F)(F)F)cc(N2CCC3(CC2)CN[C@H](C(=O)O)C3)n1 [Example 42b, (S)-8-(2-amino-6-((R)-2,2,2-trifluoro-1-(3′-fluoro-[1,1′-biphenyl]-2-yl)ethoxy)pyrimidin-4-yl)-2,8-diazaspiro[4.5]decane-3-carboxylic acid]	50 to 300	–
Cc1ccn(-c2ccc(Br)cc2[C@@H](Oc2cc(N3CCC4(CC3)CN[C@H](C(=O)O)C4)nc(N)n2)C(F)(F)F)n1 [Example 10n, (S)-8-(2-amino-6-((R)-1-(5-bromo-2-(3-methyl-1H-pyrazol-1-yl)phenyl)-2,2,2-trifluoroethoxy)pyrimidin-4-yl)-2,8-diazaspiro[4.5]decane-3-carboxylic acid]	< 50	–
CCS(=O)(=O)c1cccc(-c2cc(Cl)ccc2[C@@H](Oc2cc(N3CCC4(CC3)CN[C@H](C(=O)O)C4)nc(N)n2)C(F)(F)F)c1 [Example 34j, (S)-8-(2-amino-6-((R)-1-(5-chloro-3′-(ethylsulfonyl)-[1,1′-biphenyl]-2-yl)-2,2,2-trifluoroethoxy)pyrimidin-4-yl)-2,8-diazaspiro[4.5]decane-3-carboxylic acid]	50 to 300	–
CCOC(=O)c1ccc(-c2ccc(-n3ccc(C)n3)c([C@@H](Oc3cc(N4CCC5(CC4)CN[C@H](C(=O)O)C5)nc(N)n3)C(F)(F)F)c2)cc1 [Example 21, (S)-8-(2-amino-6-((R)-1-(4′-(ethoxycarbonyl)-4-(3-methyl-1H-pyrazol-1-yl)-[1,1′-biphenyl]-3-yl)-2,2,2-trifluoroethoxy)pyrimidin-4-yl)-2,8-diazaspiro[4.5]decane-3-carboxylic acid]	< 50	–
Nc1nc(O[C@H](c2ccc(Cl)cc2-c2ccc(Cl)cc2)C(F)(F)F)cc(N2CCC3(CC2)CN[C@H](C(=O)O)C3)n1 [Example 34bw, (S)-8-(2-amino-6-((R)-1-(4′,5-dichloro-[1,1′-biphenyl]-2-yl)-2,2,2-trifluoroethoxy)pyrimidin-4-yl)-2,8-diazaspiro[4.5]decane-3-carboxylic acid]	–	50 to 300
Cc1ccn(-c2cc(-c3ccc([S+](C)[O-])cc3)ccc2[C@@H](Oc2cc(N3CCC4(CC3)CN[C@H](C(=O)O)C4)nc(N)n2)C(F)(F)F)n1 (stereo partly drawn) [Example 1a, (3S)-8-(2-amino-6-((1R)-2,2,2-trifluoro-1-(3-(3-methyl-1H-pyrazol-1-yl)-4′-(methylsulfinyl)-[1,1′-biphenyl]-4-yl)ethoxy)pyrimidin-4-yl)-2,8-diazaspiro[4.5]decane-3-carboxylic acid]	< 50	–
CC(C)Oc1ccc(-c2ccc([C@@H](Oc3cc(N4CCC5(CC4)CN[C@H](C(=O)O)C5)nc(N)n3)C(F)(F)F)c(N3CCOCC3)c2)cc1 [Example 36f, (S)-8-(2-amino-6-((R)-2,2,2-trifluoro-1-(4′-isopropoxy-3-morpholino-[1,1′-biphenyl]-4-yl)ethoxy)pyrimidin-4-yl)-2,8-diazaspiro[4.5]decane-3-carboxylic acid]	50 to 300	–
COc1cccc(-c2cc(Cl)ccc2[C@@H](Oc2cc(N3CCC4(CC3)CN[C@H](C(=O)O)C4)nc(N)n2)C(F)(F)F)c1 [Example 34y, (S)-8-(2-amino-6-((R)-1-(5-chloro-3′-methoxy-[1,1′-biphenyl]-2-yl)-2,2,2-trifluoroethoxy)pyrimidin-4-yl)-2,8-diazaspiro[4.5]decane-3-carboxylic acid]	–	< 50
CCN(CC)C(=O)c1cccc(-c2cc(Cl)ccc2[C@@H](Oc2cc(N3CCC4(CC3)CN[C@H](C(=O)O)C4)nc(N)n2)C(F)(F)F)c1 [Example 34co, (S)-8-(2-amino-6-((R)-1-(5-chloro-3′-(diethylcarbamoyl)-[1,1′-biphenyl]-2-yl)-2,2,2-trifluoroethoxy)pyrimidin-4-yl)-2,8-diazaspiro[4.5]decane-3-carboxylic acid]	50 to 300	–
NCc1cccc(-c2cc(Cl)ccc2[C@@H](Oc2cc(N3CCC4(CC3)CN[C@H](C(=O)O)C4)nc(N)n2)C(F)(F)F)c1 [Example 34z, (S)-8-(2-amino-6-((R)-1-(3′-(aminomethyl)-5-chloro-[1,1′-biphenyl]-2-yl)-2,2,2-trifluoroethoxy)pyrimidin-4-yl)-2,8-diazaspiro[4.5]decane-3-carboxylic acid]	< 50	–
Cc1ccn(-c2cc(-c3cc(Cl)cc(Cl)c3)ccc2[C@@H](Oc2cc(N3CCC4(CC3)CN[C@H](C(=O)O)C4)nc(N)n2)C(F)(F)F)n1 [Example 1bi, (S)-8-(2-amino-6-((R)-1-(3′,5′-dichloro-3-(3-methyl-1H-pyrazol-1-yl)-[1,1′-biphenyl]-4-yl)-2,2,2-trifluoroethoxy)pyrimidin-4-yl)-2,8-diazaspiro[4.5]decane-3-carboxylic acid]	< 50	–
